Legend:
[1] = tested on: rat model of ferric chloride-induced carotid thrombosis; test: Rat model of ferric chloride-induced carotid thrombosis; assay type: in vivo; conditions: 0.3, 1, 3 mg/kg oral
Protocol: The evaluation of the antithrombotic effect was performed according to the method described in Test Example 3 of WO2010/113022. Specifically, two hours before the procedure, the present compound suspended in a 0.5% sodium carboxymethylcellulose (CMC-Na) aqueous solution was orally administered to test groups of rats at dosages of 0.3, 1, and 3 mg/kg. […] Under anesthesia, ferric chloride was applied to a carotid artery of each rat to induce thrombus formation by damaging the blood vessel, and the time from thrombus formation to occlusion of the carotid artery (occlusion time) up to 30 minutes was measured with a Doppler blood flowmeter. Occlusion of the blood flow was defined as a state in which the average blood flow indicated zero on the chart.
The bleeding effect was also evaluated by measuring the bleeding time. The bleeding time was measured in the same rats as above by sticking the tail of each rat with an animal lancet 20 minutes after the ferric chloride treatment and then observing the presence or absence of blood adhered to filter paper every 30 seconds. The time until bleeding stopped (bleeding time) was used as an index of bleeding.

[2] = tested on: cynomolgus monkey model of saphenous arterial thrombus; test: Cynomolgus monkey model of saphenous arterial thrombus (PIT model); assay type: in vivo
Protocol: The thrombus formation inhibitory effect of the present compound was evaluated using a cynomolgus monkey model of saphenous arterial thrombus (PIT model) .
Before the procedure, the present compound suspended in a 0.5% CMC-Na aqueous solution was orally administered to test groups of cynomolgus monkeys at dosages of 0.1, 0.3, 1, and 3 mg/kg. […] A light irradiation probe was placed on a saphenous artery of each cynomolgus monkey to cause thrombus formation by applying green light of 540 nm for 20 minutes at the time of intravenously administering rose bengal (20 mg/kg). A decrease in blood flow due to this thrombus formation was measured with a pulse Doppler blood flowmeter, and the thrombus formation inhibitory effect of the present compound was evaluated by measuring the occlusion time on the first day and the cumulative occlusion time.

rats = test: Reproductive and developmental toxicity study (fertility and early embryogenesis); assay type: in vivo, rat; conditions: oral, male and female rats
From the text: The effect of oral administration of the present compound on fertility and early embryogenesis up to implantation was examined using rats. Specifically, the present compound was orally administered to male and female rats for 2 weeks before mating, during mating, until the day before necropsy for the males, and until day 7 of gestation for the females, and the effect on fertility and early embryogenesis of the parents was examined. During the study period, the general conditions, body weights, and food consumption of all of the animals were observed and measured, and a fertility test was performed for the males and females. For the females, an estrous cycle test was performed, and a Cesarean section test was performed at day 13 of gestation. In the females, necropsy was performed at the time of Cesarean section, and in the males, necropsy was performed after completion of the Cesarean section of females.

[3] = tested on: conscious cynomolgus monkeys; test: Effect on cardiovascular and respiratory system (telemetry, blood gas); assay type: in vivo, cynomolgus monkey; conditions: single oral dose, up to 300 mg/kg
Protocol: The effect of the present compound on the cardiovascular system and the respiratory system was examined by a telemetry method and blood gas measurement using conscious cynomolgus monkeys. Systemic exposure of the test substance was also evaluated. Specifically, a control substance (a 0.5 w/v% carmellose sodium aqueous solution) and the present compound were orally administered at single ascending dosages at intervals of 7 days, and the heart rate, blood pressure (systolic blood pressure, diastolic blood pressure, and mean blood pressure), electrocardiogram (PR interval, QRS duration, QT interval, and QTc interval), respiratory rate, and body temperature were measured before administration and 1, 2, 4, 6, and 24 hours after administration on each administration day with the monkeys unanesthetized and unrestrained. Furthermore, before administration and 2, 6, and 24 hours after administration on each administration day, arterial blood was collected, and blood gases (oxygen partial pressure, carbon dioxide partial pressure, pH, and oxygen saturation) were measured. Systemic exposure was also evaluated by measuring the concentration of the test substance in plasma.

PAI-1 = target: T1, PAI-1 (Homo sapiens, UniProt P05121); test: PAI-1 activity in blood, phase I repeated oral dose study; assay type: in vivo
T1 construct: from tissue; host or cells: plasma of human subjects (phase I study)
T1 sequence (P05121 24-402): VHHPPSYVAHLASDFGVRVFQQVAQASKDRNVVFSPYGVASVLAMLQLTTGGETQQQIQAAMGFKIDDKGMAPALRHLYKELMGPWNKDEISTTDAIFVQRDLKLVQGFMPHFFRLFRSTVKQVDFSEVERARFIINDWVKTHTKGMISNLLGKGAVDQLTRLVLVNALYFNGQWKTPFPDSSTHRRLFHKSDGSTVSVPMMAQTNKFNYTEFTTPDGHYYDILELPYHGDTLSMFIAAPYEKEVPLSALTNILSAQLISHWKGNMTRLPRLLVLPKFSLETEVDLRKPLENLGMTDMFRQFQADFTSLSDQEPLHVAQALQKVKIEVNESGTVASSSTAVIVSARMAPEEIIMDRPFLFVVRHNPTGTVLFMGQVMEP
Protocol: The pharmacological activities (PAI-1 activity and t-PA activity) were evaluated using blood collected from the subjects before and after administration of the present compound or the placebo as test samples. Blood was collected before administration and 2, 4, and 8 hours after administration on the first day of the experiment (day 1) and day 7 after the start of the experiment, and on the other days, blood was collected once a day before administration (only before administration on days 2 to 6, day 8, and day 11 after the start of administration).
After collecting blood samples from the subjects, the samples were treated with 3.2% citric acid salt and centrifuged at 4° C., 1,800 g for 10 minutes to obtain plasma. The collected plasma was used for measurement of PAI-1 activity and stored frozen at -80° C. or less until measurement.
The PAI-1 activity was measured using a human PAI-1 activity assay kit (produced by Molecular Innovations Inc.). In this system, a plasma sample collected from a subject is placed on a plate coated with urokinase plasminogen activator (uPA), PAI-1 in the sample is reacted with uPA, and then active PAI-1 bound to uPA is measured as PAI-1 activity using an antigen-antibody reaction with an anti-PAI-1 antibody by measuring the absorbance at a wavelength of 450 nm with a plate reader.

O=C(Nc1ccc(Cl)cc1C(=O)[O-])c1cccc(-c2cccc3cccnc23)c1.[Na+] [present compound, sodium 5-chloro-2-({ [3-(quinolin-8-yl)phenyl]carbonyl}amino)benzoate]
occlusion time ([1]; 2 hours before procedure): prolongs the occlusion time in a dose-dependent manner | bleeding time vs vehicle group ([1]; tail lancet 20 minutes after ferric chloride): no significant difference | initial occlusion time vs vehicle group ([2]; 0.3 mg/kg oral, P<0.05): Significant prolongation | cumulative occlusion time vs vehicle group ([2]; 0.1, 0.3, 1.0, 3.0 mg/kg oral, P<0.01, dose-dependent): significant reductions | minimum effective dosage ([2]; oral administration to monkeys): 0.1 mg/kg | no-observed-adverse-effect level in the parent animals, including fertility (rats): 1000 mg/kg/day | no-observed-adverse-effect level with respect to early embryogenesis (rats): 1000 mg/kg/day | effect on the cardiovascular system or the respiratory system [3]: no effect | PAI-1 activity in blood vs placebo (PAI-1; 60 mg/day oral, days 1 and 7): neither PAI-1 activity nor t-PA activity was different | time after administration of maximal decrease in PAI-1 activity (PAI-1; 120 mg/day oral): 8 h | PAI-1 activity in blood (PAI-1; 120 mg/day oral, days 1 and 7): decreased | dosage at which PAI-1 is significantly inhibited and t-PA enhanced in humans (PAI-1; oral): at least 120 mg per day

Reference: patent publication US20230355605A1, “DRUG FOR ENHANCING FIBRINOLYTIC SYSTEM, AND USE THEREFOR” (priority 2020, published 2023)
